Assay results from article PMC5438914 (SLAS discovery, 2016).
Where two headings read alike, the source gives them in different places.

Experiments:
[1] = system: eukaryotic protein synthesis in wheat germ cell extract; experiment: wheat germ cell extract poly-Phe protein synthesis assay; assay type: biochemical; details: at 30 µM
PheRS [2] = biological target: T1, PheRS (Pseudomonas aeruginosa, UniProt Q9I0A3+Q9I0A4); experiment: tRNA aminoacylation assay; assay type: biochemical
PheRS [3] = biological target: T1, PheRS; experiment: competition assays with PheRS substrates ATP and Phe; assay type: biochemical; details: IC50 at ATP 25-1000 µM or Phe 25-300 µM; data not shown
H. influenzae = experiment: time-kill experiments; details: 4× MIC; for bacteriostatic or bactericidal: 0 to 24 h
[4] = system: human embryonic kidney 293 cells (HEK-293); experiment: MTT cytotoxicity test; details: HEK-293, MTT, 24 h
[5] = system: EF-Tu, EF-Ts, EF-G, and PheRS; experiment: specificity assays against the accessory proteins of the A/T system; assay type: biochemical, Pseudomonas aeruginosa; details: tested against each of the four accessory proteins
S. aureus = experiment: time-kill experiments; details: 4× MIC; for bacteriostatic or bactericidal: 0 to 24 h
[6] = biological target: T2, human mitochondrial PheRS (hmPheRS) (Homo sapiens, UniProt O95363); experiment: hmPheRS aminoacylation assay; assay type: biochemical; details: 0.4 to 200 µM; at high concentrations
T2 sequence (O95363 1-451): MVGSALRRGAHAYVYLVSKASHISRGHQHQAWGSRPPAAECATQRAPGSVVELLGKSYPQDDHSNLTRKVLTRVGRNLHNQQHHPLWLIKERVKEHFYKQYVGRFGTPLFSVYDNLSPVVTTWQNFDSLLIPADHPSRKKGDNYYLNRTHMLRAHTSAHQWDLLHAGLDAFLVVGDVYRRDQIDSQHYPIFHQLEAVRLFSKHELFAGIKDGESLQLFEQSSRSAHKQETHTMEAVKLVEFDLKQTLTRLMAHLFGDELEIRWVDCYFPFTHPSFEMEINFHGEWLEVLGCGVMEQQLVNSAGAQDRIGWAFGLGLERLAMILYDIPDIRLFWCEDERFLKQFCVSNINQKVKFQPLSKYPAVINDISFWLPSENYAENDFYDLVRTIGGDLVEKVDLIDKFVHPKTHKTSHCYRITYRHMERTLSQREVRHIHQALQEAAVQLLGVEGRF

[7] = system: human embryonic kidney 293 cells (HEK-293)

T1 sequence (Q9I0A3 whole entry): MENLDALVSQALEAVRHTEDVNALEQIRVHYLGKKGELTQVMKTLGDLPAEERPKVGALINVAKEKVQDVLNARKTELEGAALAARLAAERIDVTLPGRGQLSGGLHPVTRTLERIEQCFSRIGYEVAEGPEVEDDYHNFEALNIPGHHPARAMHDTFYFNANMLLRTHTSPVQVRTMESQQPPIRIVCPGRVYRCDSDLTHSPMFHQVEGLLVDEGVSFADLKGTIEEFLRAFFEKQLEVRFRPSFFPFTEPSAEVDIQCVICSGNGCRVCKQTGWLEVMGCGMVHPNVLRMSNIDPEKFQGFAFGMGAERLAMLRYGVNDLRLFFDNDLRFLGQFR
T1 sequence (Q9I0A4 whole entry): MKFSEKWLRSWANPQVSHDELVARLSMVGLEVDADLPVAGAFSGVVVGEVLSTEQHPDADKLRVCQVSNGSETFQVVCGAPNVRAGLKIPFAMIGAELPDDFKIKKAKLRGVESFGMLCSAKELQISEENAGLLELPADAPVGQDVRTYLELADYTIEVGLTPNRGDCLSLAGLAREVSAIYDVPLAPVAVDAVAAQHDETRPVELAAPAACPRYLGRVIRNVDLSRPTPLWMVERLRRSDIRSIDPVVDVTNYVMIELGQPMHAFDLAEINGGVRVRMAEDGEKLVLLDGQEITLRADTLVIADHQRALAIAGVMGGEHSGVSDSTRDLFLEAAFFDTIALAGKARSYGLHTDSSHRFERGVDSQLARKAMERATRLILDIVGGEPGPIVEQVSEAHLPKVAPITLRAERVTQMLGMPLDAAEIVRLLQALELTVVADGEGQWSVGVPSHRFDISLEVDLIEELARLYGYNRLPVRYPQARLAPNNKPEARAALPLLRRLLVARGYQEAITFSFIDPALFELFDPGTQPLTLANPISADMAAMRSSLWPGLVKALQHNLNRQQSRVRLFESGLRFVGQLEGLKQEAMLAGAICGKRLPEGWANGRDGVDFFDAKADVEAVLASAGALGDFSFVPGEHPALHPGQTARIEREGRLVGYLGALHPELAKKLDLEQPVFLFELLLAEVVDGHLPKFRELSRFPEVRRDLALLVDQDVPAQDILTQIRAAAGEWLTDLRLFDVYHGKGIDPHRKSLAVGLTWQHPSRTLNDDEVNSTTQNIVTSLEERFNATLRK

Row | Structure (SMILES) | inhibition of protein synthesis [1] | IC50 (PheRS [2]) [µM] | mechanism of inhibition with respect to ATP and Phe (PheRS [3]) | bacteriostatic or bactericidal (H. influenzae) | decrease in colony-forming units (CFU) compared with the control (H. influenzae; during the first 6 h) [log10] | IC50 (or CC50) for inhibition of cell growth [4] [µg/mL] | specificity for a single component of the A/T assay [5] | bacteriostatic or bactericidal (S. aureus) | decrease in colony-forming units (CFU) compared with the control (S. aureus; during the first 6 h) [log10] | effect on the activity of hmPheRS [6] | IC50 (or CC50) for inhibition of cell growth [7] [µg/mL] | growth in time-kill cultures (H. influenzae; up to 24 h) | growth in time-kill cultures (S. aureus; up to 24 h)
1 | C[C@@H]1C[C@@H]([C@H](O)CC2CC(=O)NC(=O)C2)C(=O)[C@@H](C)C1 [cycloheximide] | greater than 80% | – | – | – | – | – | – | – | – | – | – | – | –
2 | O=C(N/N=C/c1ccc([N+](=O)[O-])o1)c1cc([N+](=O)[O-])cc([N+](=O)[O-])c1O [BT06G06, nifursol] | – | 60.5 | noncompetitive with both of the natural substrates | bacteriostatic | 2 to 4 | 18.5 | specifically inhibit PheRS | bacteriostatic | 2 to 4 | only modestly affected | – | – | –
3 | N=C(N)NN=C(/C=C/c1ccc([N+](=O)[O-])o1)/C=C/c1ccc([N+](=O)[O-])o1 [BT06D07, difurazone] | – | – | – | bactericidal | – | – | did not inhibit an accessory protein | bactericidal | – | – | > 400 | inhibited the growth of both bacteria completely during all times tested | inhibited the growth of both bacteria completely during all times tested
